Source: patent US12077503B2, “Substituted cyclic amides and their use as herbicides” (FMC CORPORATION, priority 2015, dated 2024)

Columns and labels:
Type in all cases: in vivo
[1] = system: velvetleaf (Abutilon theophrasti); assay: Test G Pre-Emergence Protocol; conditions: Abutilon theophrasti, pre-emergence, 312 h, evaluated after 13 days; for pest or weed control at 15.625 g/ha: 15.625 g ai/ha; for pest or weed control at 15.625 g/ha / pest or weed control at 250 g/ha: read-out: Velvetleaf damage rating (100=total damage to plant; 0=no damage to plant); for pest or weed control at 62.5 g/ha: 62.5 g ai/ha, 100=total damage to plant, 0=no damage to plant, read-out: Velvetleaf damage rating; for pest or weed control at 250 g/ha: 250 g ai/ha
In short: (§1)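 Seeds were sown in standard soil and kept one day in a glasshouse (24/16° C day/night, 14 h light, 65% humidity), then sprayed with compound in acetone/water (50:50) containing 0.5% Tween 20 at 15.625, 62.5 or 250 g/ha. Damage was scored after 13 days (0 = none, 100 = total).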

[2] = system: redroot pigweed (Amaranthus retroflexus); assay: Test G Pre-Emergence Protocol; conditions: Amaranthus retroflexus, pre-emergence, 312 h, evaluated after 13 days; for pest or weed control at 15.625 g/ha: 15.625 g ai/ha; for pest or weed control at 15.625 g/ha / pest or weed control at 250 g/ha: read-out: Pigweed, Redroot damage rating (100=total damage to plant; 0=no damage to plant); for pest or weed control at 62.5 g/ha: 62.5 g ai/ha, 100=total damage to plant, 0=no damage to plant, read-out: Pigweed, Redroot damage rating; for pest or weed control at 250 g/ha: 250 g ai/ha
In short: as §1

[3] = system: giant foxtail (Setaria faberi); assay: Test G Pre-Emergence Protocol; conditions: Setaria faberi, pre-emergence, 312 h, evaluated after 13 days; for pest or weed control at 15.625 g/ha: 15.625 g ai/ha; for pest or weed control at 15.625 g/ha / pest or weed control at 250 g/ha: read-out: Foxtail, Giant damage rating (100=total damage to plant; 0=no damage to plant); for pest or weed control at 62.5 g/ha: 62.5 g ai/ha, 100=total damage to plant, 0=no damage to plant, read-out: Foxtail, Giant damage rating; for pest or weed control at 250 g/ha: 250 g ai/ha
In short: as §1

corn (Zea mays) [4] = assay: Test G Pre-Emergence Protocol; conditions: Zea mays, pre-emergence, 312 h, evaluated after 13 days; for plant injury at 15.625 g/ha: 15.625 g ai/ha; for plant injury at 15.625 g/ha / plant injury at 250 g/ha: read-out: Corn damage rating (100=total damage to plant; 0=no damage to plant); for plant injury at 62.5 g/ha: 62.5 g ai/ha, 100=total damage to plant, 0=no damage to plant, read-out: Corn damage rating; for plant injury at 250 g/ha: 250 g ai/ha
In short: as §1

[5] = system: ivy-leaved morning glory (Ipomoea hederacea); assay: Test G Pre-Emergence Protocol; conditions: Ipomoea, pre-emergence, 312 h, evaluated after 13 days; for pest or weed control at 15.625 g/ha: 15.625 g ai/ha; for pest or weed control at 15.625 g/ha / pest or weed control at 250 g/ha: read-out: Morningglory, Ivy-leaved damage rating (100=total damage to plant; 0=no damage to plant); for pest or weed control at 62.5 g/ha: 62.5 g ai/ha, 100=total damage to plant, 0=no damage to plant, read-out: Morningglory, Ivy-leaved damage rating; for pest or weed control at 250 g/ha: 250 g ai/ha
In short: as §1

[6] = system: barnyardgrass (Echinochloa crus-galli); assay: Test G Pre-Emergence Protocol; conditions: Echinochloa crus-galli, pre-emergence, 312 h, evaluated after 13 days; for pest or weed control at 15.625 g/ha: 15.625 g ai/ha; for pest or weed control at 15.625 g/ha / pest or weed control at 250 g/ha: read-out: Barnyardgrass damage rating (100=total damage to plant; 0=no damage to plant); for pest or weed control at 62.5 g/ha: 62.5 g ai/ha, 100=total damage to plant, 0=no damage to plant, read-out: Barnyardgrass damage rating; for pest or weed control at 250 g/ha: 250 g ai/ha
In short: as §1

[7] = system: velvetleaf (Abutilon theophrasti); assay: Test G Post-Emergence Protocol; conditions: Abutilon theophrasti, post-emergence, 312 h, read-out: Velvetleaf damage rating; for pest or weed control at 15.625 g/ha: 15.625 g ai/ha, evaluated after 13 days (100=total damage to plant; 0=no damage to plant); for pest or weed control at 62.5 g/ha: 62.5 g ai/ha; for pest or weed control at 62.5 g/ha / pest or weed control at 250 g/ha: evaluated after 13 days, 100=total damage to plant, 0=no damage to plant; for pest or weed control at 250 g/ha: 250 g ai/ha
In short: (§2)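 Pot-grown seedlings, 8 days old, raised in a glasshouse at 24/16 °C day/night with 14 h light and 65% humidity, were sprayed post-emergence with test compound in acetone/water (50:50) plus 0.5% Tween 20 at 15.625, 62.5 or 250 g/ha. Damage was scored visually 13 days later on a 0–100 scale (100 = total damage).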

[8] = system: redroot pigweed (Amaranthus retroflexus); assay: Test G Post-Emergence Protocol; conditions: Amaranthus retroflexus, post-emergence, 312 h, read-out: Pigweed, Redroot damage rating; for pest or weed control at 15.625 g/ha: 15.625 g ai/ha, evaluated after 13 days (100=total damage to plant; 0=no damage to plant); for pest or weed control at 62.5 g/ha: 62.5 g ai/ha; for pest or weed control at 62.5 g/ha / pest or weed control at 250 g/ha: evaluated after 13 days, 100=total damage to plant, 0=no damage to plant; for pest or weed control at 250 g/ha: 250 g ai/ha
In short: as §2

[9] = system: giant foxtail (Setaria faberi); assay: Test G Post-Emergence Protocol; conditions: Setaria faberi, post-emergence, 312 h, read-out: Foxtail, Giant damage rating; for pest or weed control at 15.625 g/ha: 15.625 g ai/ha, evaluated after 13 days (100=total damage to plant; 0=no damage to plant); for pest or weed control at 62.5 g/ha: 62.5 g ai/ha; for pest or weed control at 62.5 g/ha / pest or weed control at 250 g/ha: evaluated after 13 days, 100=total damage to plant, 0=no damage to plant; for pest or weed control at 250 g/ha: 250 g ai/ha
In short: as §2

corn (Zea mays) [10] = assay: Test G Post-Emergence Protocol; conditions: Zea mays, post-emergence, 312 h, read-out: Corn damage rating; for plant injury at 15.625 g/ha: 15.625 g ai/ha, evaluated after 13 days (100=total damage to plant; 0=no damage to plant); for plant injury at 62.5 g/ha: 62.5 g ai/ha; for plant injury at 62.5 g/ha / plant injury at 250 g/ha: evaluated after 13 days, 100=total damage to plant, 0=no damage to plant; for plant injury at 250 g/ha: 250 g ai/ha
In short: as §2

[11] = system: ivy-leaved morning glory (Ipomoea hederacea); assay: Test G Post-Emergence Protocol; conditions: Ipomoea, post-emergence, 312 h, read-out: Morningglory, Ivy-leaved damage rating; for pest or weed control at 15.625 g/ha: 15.625 g ai/ha, evaluated after 13 days (100=total damage to plant; 0=no damage to plant); for pest or weed control at 62.5 g/ha: 62.5 g ai/ha; for pest or weed control at 62.5 g/ha / pest or weed control at 250 g/ha: evaluated after 13 days, 100=total damage to plant, 0=no damage to plant; for pest or weed control at 250 g/ha: 250 g ai/ha
In short: as §2

[12] = system: barnyardgrass (Echinochloa crus-galli); assay: Test G Post-Emergence Protocol; conditions: Echinochloa crus-galli, post-emergence, 312 h, read-out: Barnyardgrass damage rating; for pest or weed control at 15.625 g/ha: 15.625 g ai/ha, evaluated after 13 days (100=total damage to plant; 0=no damage to plant); for pest or weed control at 62.5 g/ha: 62.5 g ai/ha; for pest or weed control at 62.5 g/ha / pest or weed control at 250 g/ha: evaluated after 13 days, 100=total damage to plant, 0=no damage to plant; for pest or weed control at 250 g/ha: 250 g ai/ha
In short: as §2

SMILES | pest or weed control at 15.625 g/ha [1] [%] | pest or weed control at 62.5 g/ha [1] [%] | pest or weed control at 250 g/ha [1] [%] | pest or weed control at 15.625 g/ha [2] [%] | pest or weed control at 62.5 g/ha [2] [%] | pest or weed control at 250 g/ha [2] [%] | pest or weed control at 15.625 g/ha [3] [%] | pest or weed control at 62.5 g/ha [3] [%] | pest or weed control at 250 g/ha [3] [%] | plant injury at 15.625 g/ha (corn (Zea mays) [4]) [%] | plant injury at 62.5 g/ha (corn (Zea mays) [4]) [%] | plant injury at 250 g/ha (corn (Zea mays) [4]) [%] | pest or weed control at 15.625 g/ha [5] [%] | pest or weed control at 62.5 g/ha [5] [%] | pest or weed control at 250 g/ha [5] [%] | pest or weed control at 15.625 g/ha [6] [%] | pest or weed control at 62.5 g/ha [6] [%] | pest or weed control at 250 g/ha [6] [%] | pest or weed control at 15.625 g/ha [7] [%] | pest or weed control at 62.5 g/ha [7] [%] | also measured
CN1C[C@H](c2cc(F)cc(F)c2)[C@@H](C(=O)Nc2cnccc2C(F)(F)F)C1=O (racemic) [Compound 1741] | 0 | 30 | 60 | 10 | 20 | 30 | 0 | 90 | 90 | 0 | 10 | 30 | 0 | 0 | 0 | 0 | 40 | 70 | 0 | 0 | pest or weed control at 250 g/ha [7]: 10%; pest or weed control at 15.625 g/ha [8]: 0%; pest or weed control at 62.5 g/ha [8]: 0%; pest or weed control at 250 g/ha [8]: 0%; pest or weed control at 15.625 g/ha [9]: 50%; pest or weed control at 62.5 g/ha [9]: 80%; plant injury at 15.625 g/ha (corn (Zea mays) [10]): 0%; plant injury at 62.5 g/ha (corn (Zea mays) [10]): 0%; plant injury at 250 g/ha (corn (Zea mays) [10]): 0%; pest or weed control at 15.625 g/ha [11]: 0%; pest or weed control at 62.5 g/ha [11]: 30%; pest or weed control at 250 g/ha [11]: 10%; pest or weed control at 15.625 g/ha [12]: 0%; pest or weed control at 62.5 g/ha [12]: 0%; pest or weed control at 250 g/ha [12]: 70%
CN1C[C@H](c2cccc(C(F)(F)F)c2)[C@@H](C(=O)Nc2cnccc2F)C1=O (racemic) [Compound 1745] | 0 | 0 | 0 | 0 | 0 | 20 | 0 | 10 | 50 | 0 | 0 | 0 | 0 | 0 | 10 | 0 | 0 | 60 | 0 | 0 | pest or weed control at 250 g/ha [7]: 0%; pest or weed control at 15.625 g/ha [8]: 0%; pest or weed control at 62.5 g/ha [8]: 0%; pest or weed control at 250 g/ha [8]: 20%; pest or weed control at 15.625 g/ha [9]: 10%; pest or weed control at 62.5 g/ha [9]: 60%; pest or weed control at 250 g/ha [9]: 70%; plant injury at 15.625 g/ha (corn (Zea mays) [10]): 0%; plant injury at 62.5 g/ha (corn (Zea mays) [10]): 0%; plant injury at 250 g/ha (corn (Zea mays) [10]): 0%; pest or weed control at 15.625 g/ha [11]: 0%; pest or weed control at 62.5 g/ha [11]: 30%; pest or weed control at 250 g/ha [11]: 40%; pest or weed control at 15.625 g/ha [12]: 10%; pest or weed control at 62.5 g/ha [12]: 70%; pest or weed control at 250 g/ha [12]: 80%
CN1C[C@H](c2ccc(C(F)(F)F)cc2)[C@@H](C(=O)Nc2cnccc2S(C)(=O)=O)C1=O (racemic) [Compound 1746] | 0 | 0 | 10 | 0 | 0 | 20 | 0 | 20 | 70 | 0 | 0 | 0 | 0 | 0 | 10 | 0 | 0 | 50 | 0 | 0 | pest or weed control at 250 g/ha [7]: 10%; pest or weed control at 15.625 g/ha [8]: 0%; pest or weed control at 62.5 g/ha [8]: 20%; pest or weed control at 250 g/ha [8]: 20%; pest or weed control at 15.625 g/ha [9]: 0%; pest or weed control at 62.5 g/ha [9]: 10%; pest or weed control at 250 g/ha [9]: 70%; plant injury at 15.625 g/ha (corn (Zea mays) [10]): 0%; plant injury at 62.5 g/ha (corn (Zea mays) [10]): 0%; plant injury at 250 g/ha (corn (Zea mays) [10]): 10%; pest or weed control at 15.625 g/ha [11]: 0%; pest or weed control at 62.5 g/ha [11]: 10%; pest or weed control at 250 g/ha [11]: 60%; pest or weed control at 15.625 g/ha [12]: 0%; pest or weed control at 62.5 g/ha [12]: 0%; pest or weed control at 250 g/ha [12]: 40%
